Results: patent US6420129B1, “Reagent composition for determination of electrolytes” (Toyo Boseki Kabushiki Kaisha, priority 1998, dated 2002)

Experiments:
[1] = Visual observation of test solutions for deposition of crystals or white turbidity; format: physicochemical; parameters: key to turbidity (visual observation): +: turbidity found; −: no turbidity
Method: Among the reagents for the determination of calcium with the reagent formulations as described below, test enzyme solutions were prepared by the addition of glucosyl-α-cyclodextrin (G1αCD), maltosyl-α-cyclodextrin (G2αCD), glucosyl-p-cyclodextrin (G1βCD), or maltosyl-β-cyclodextrin(G2βCD) as a cyclodextrin derivative to have a concentration of 0, 1.5, 3, 6, or 12 mM. To the test enzyme solutions containing 3 mM glucosyl-β-cyclodextrin was further added independently N-acetylcysteine or reduced glutathione to have a concentration of 2.5, 5, 10, or 20 mM.
Both kinds of test solutions prepared by the above procedures were stored at 4° C. for 3 months. Visual observation of the test solutions was carried out just after the preparation and after the storage to examine whether there was found the deposition of crystals or the presence of white turbidity. The results are shown in table 1 for the visual observation just after the preparation and in Table 2 for the visual observation after the storage.
The test solutions were prepared in the same manner as described in Example 1, except that α-cyclodextrin (αCD) (1.5, 3, 6, or 12 mM), β-cyclodextrin (βCD) (1.5, 3, 6, or 12 mM), or γ-cyclodextrin (γCD) (1.5, 3, 6, or 12 mM) was independently added instead of the cyclodextrin derivatives and the SH group containing compounds in the above reagent formulations to have the respective concentrations as shown in Table 1. Both kinds of test solutions were stored at 4° C. for 3 months. Visual observation of the test solutions was carried out just after the preparation and after the storage to examine whether there was found the deposition of crystals or the presence of white turbidity. The results are shown in Table 1 for the visual observation just after the preparation and in Table 2 for the visual observation after the storage.

[2] = target: T1, Inactive α-amylase (from swine pancreas) (Sus scrofa, UniProt P00690); experiment: Residual activity of α-amylase in test enzyme solutions after storage; format: biochemical; conditions: after storage at 35° C. for 7 days
T1 construct: α-amylase derived from the swine pancreas; from tissue; host or cells: swine pancreas
T1 sequence (P00690 16-511): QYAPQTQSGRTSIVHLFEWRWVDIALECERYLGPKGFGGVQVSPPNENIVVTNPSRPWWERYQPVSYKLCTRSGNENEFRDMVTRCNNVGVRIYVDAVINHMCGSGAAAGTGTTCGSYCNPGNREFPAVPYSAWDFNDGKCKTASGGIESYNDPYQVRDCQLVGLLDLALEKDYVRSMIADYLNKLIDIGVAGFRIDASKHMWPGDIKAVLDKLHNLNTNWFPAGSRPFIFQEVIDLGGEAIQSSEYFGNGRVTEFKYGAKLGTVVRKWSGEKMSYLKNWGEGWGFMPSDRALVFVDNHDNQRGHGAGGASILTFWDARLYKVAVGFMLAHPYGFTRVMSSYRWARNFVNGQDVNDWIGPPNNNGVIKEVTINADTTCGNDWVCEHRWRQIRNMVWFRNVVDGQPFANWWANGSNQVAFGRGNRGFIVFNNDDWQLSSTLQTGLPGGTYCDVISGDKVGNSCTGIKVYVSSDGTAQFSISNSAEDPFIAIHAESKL
Method: [table] In the test enzyme solutions of the reagents for the determination of calcium with the reagent formulations as described above in Example 1, glucosyl-α-cyclodextrin, maltosyl-α-cyclodextrin, glucosyl-β-cyclodextrin, or maltosyl-β-cyclodextrin was independently added as a cyclodextrin derivative at 12 mM. […] Instead of the cyclodextrin derivatives and the SH group containing compounds in the reagent formulations as described above in Example 1, glucose (100 mM), maltose (50 mM), maltotriose (30 mM), α-cyclodextrin (1.5 mM), β-cyclodextrin (1.5 mM), γ-cyclodextrin (1.5 mM), N-acetylcysteine (20 mM), or reduced glutathione (20 mM) was independently added to have the respective concentrations as shown in Table 3.

[3] = target: T1, Inactive α-amylase (from swine pancreas); experiment: Relative sensitivity in determination of calcium with 10 mg/dl calcium standard solution; format: biochemical; conditions: just after the preparation, 10 mg/dl calcium standard
Method: [table] In the test enzyme solutions of the reagents for the determination of calcium with the reagent formulations as described above in Example 1, glucosyl-α-cyclodextrin, maltosyl-α-cyclodextrin, glucosyl-β-cyclodextrin, or maltosyl-β-cyclodextrin was independently added as a cyclodextrin derivative at 0, 1.5, 3, 6, or 12 mM. To the test enzyme solutions containing 3 mM glucosyl-β-cyclodextrin was further added independently N-acetylcysteine or reduced glutathione at 2.5, 5, 10, or 20 mM, and the determination of calcium ions with a calcium standard solution was carried out as described below. According to the method as described below, the determination of the amount of calcium was carried out for test solutions just after the preparation with 10 mg/dl calcium standard solution as a sample, and the relative sensitivity (%) was determined under the respective reagent conditions when the sensitivity in the case of no addition of cyclodextrin derivatives was taken as 100%. B. Method for the Determination of the Amount of Calcium To 5.8 μl of a sample was added 180 μl of a test enzyme solution, and the mixture was pre-warmed for 5 minutes, to which 90 μl of a test substrate solution was further added to make the reaction start. […] The measuring apparatus used was HITACHI Automatic Analyzer model 7170. The measurement wavelength was 405 nm for the principal wavelength and 546 nm for the second wavelength. The measurement was carried out at 37° C. […] The test solutions thus prepared were used for the determination of the calcium standard solution in the same manner as described in Example 3.

[4] = target: T1, Inactive α-amylase (from swine pancreas); experiment: Calcium linearity of test solutions just after preparation and after storage; format: biochemical; conditions: after the storage at 35° C. for 7 days
Method: To 5.8 μl of a sample was added 180 μl of a test enzyme solution, and the mixture was pre-warmed for 5 minutes, to which 90 μl of a test substrate solution was further added to make the reaction start. The change of absorbance per minute for 3 minutes was measured starting at the time when 2 minutes passed after the addition of the test substrate solution, and the amount of calcium in the sample was determined according to the two-point calibration curves for purified water and 10 mg/dl calcium standard solution.
The measuring apparatus used was HITACHI Automatic Analyzer model 7170. The measurement wavelength was 405 nm for the principal wavelength and 546 nm for the second wavelength. The measurement was carried out at 37° C.
[…] […] According to the method for the determination of the amount of calcium as described in Example 3, Sec. B, the calcium linearity was determined for test solutions just after the preparation and after the storage at 35° C. for 7 days with serial 10-fold dilutions of a 50 mg/dl aqueous calcium solution as samples.
Instead of the cyclodextrin derivatives and the SN-group containing compounds in the reagent formulations as described above in Example 1, β-cyclodextrin was added at 1.5 mM. The test solutions thus prepared were stored at 35° C. for 7 days and the calcium linearity was determined in the same manner as described in Example 3.

[5] = after storage at 4° C. for 3 months, agent added 1.5 mM
[6] = after storage at 4° C. for 3 months, agent added 3 mM
[7] = after storage at 4° C. for 3 months, agent added 6 mM
[8] = after storage at 4° C. for 3 months, agent added 12 mM
[9] = just after the preparation, agent added 1.5 mM
[10] = just after the preparation, agent added 3 mM
[11] = just after the preparation, agent added 6 mM
[12] = just after the preparation, agent added 12 mM

Structure (SMILES) | turbidity (visual observation) [1, 5] | turbidity (visual observation) [1, 6] | turbidity (visual observation) [1, 7] | turbidity (visual observation) [1, 8] | turbidity (visual observation) [1, 9] | turbidity (visual observation) [1, 10] | turbidity (visual observation) [1, 11] | turbidity (visual observation) [1, 12] | Residual activity (%) ([2]; agent 12 mM) | Relative sensitivity (%) when sensitivity in case of no addition is taken as 100% ([3]; agent 1.5 mM) [%] | Relative sensitivity (%) when sensitivity in case of no addition is taken as 100% ([3]; agent 3 mM) [%] | Relative sensitivity (%) when sensitivity in case of no addition is taken as 100% ([3]; agent 6 mM) [%] | Relative sensitivity (%) when sensitivity in case of no addition is taken as 100% ([3]; agent 12 mM) [%] | calcium linearity / quantitative reliability (in words) ([4]; agent 12 mM) | turbidity of test enzyme solution (in words) ([1]; after the storage at 4° C. for 3 months, at 3 mM) | turbidity of test enzyme solution (in words) ([1]; just after the preparation, at 6 mM) | Residual activity (%) ([2]; agent 1.5 mM) | calcium linearity / quantitative reliability (in words) ([4]; agent 1.5 mM)
OCC1OC(OCC2OC3OC4C(CO)OC(OC5C(CO)OC(OC6C(CO)OC(OC7C(CO)OC(OC8C(CO)OC(OC9C(CO)OC(OC2C(O)C3O)C(O)C9O)C(O)C8O)C(O)C7O)C(O)C6O)C(O)C5O)C(O)C4O)C(O)C(O)C1O (stereo not drawn) [G1βCD, glucosyl-β-cyclodextrin] | − | − | − | − | − | − | − | − | 91.7 | 120.7 | 128.6 | 133.2 | 122.5 | the quantitative reliability was kept at high concentrations |  |  |  | 
OC[C@H]1O[C@@H]2O[C@H]3[C@H](O)[C@@H](O)[C@@H](O[C@H]4[C@H](O)[C@@H](O)[C@@H](O[C@H]5[C@H](O)[C@@H](O)[C@@H](O[C@H]6[C@H](O)[C@@H](O)[C@@H](O[C@H]7[C@H](O)[C@@H](O)[C@@H](O[C@H]8[C@H](O)[C@@H](O)[C@@H](O[C@H]1[C@H](O)[C@H]2O)O[C@@H]8CO)O[C@@H]7CO)O[C@@H]6CO)O[C@@H]5CO)O[C@@H]4CO)O[C@@H]3CO [βCD, β-cyclodextrin, reference compound] | − | − | + | + | − | − | + | + |  |  |  |  |  |  | became turbid | had already become turbid | 77.4 | became deviated upward, and the quantitative reliability was decreased at high concentrations
